Experimental data: patent US20220213060A1, “Crystal Form of Quinazolinone Compound and Preparation Method Therefor” (Luoxin Healthcare Science and Technology Development …, priority 2019, published 2022)

Test system: HR+/HER2+ human breast cancer BT-474 (PIK3CA amplified)
Experiment: In vivo pharmacodynamic study, BT-474 nude mouse subcutaneous xenograft tumor model
Set-up: species or system BALB/c nude mice
Experimental: The phenotype of human BT-474 breast cancer cells is HR+/HER2+, and it has PIK3CA amplification. This experiment evaluated the efficacy of the crystal form A of the compound represented by formula (I) in a human breast cancer xenograft tumor model, using BYL-719 as a reference.
Cell culture: Human breast cancer BT474 cells were cultured in vitro in a single layer, the culture condition was Hybri-Care medium with 10% fetal bovine serum and the cells were incubated in 5% CO2 at 37° C. Digestion and passage treatment with trypsin-EDTA was carried out twice a week. When the cell saturation was 80%-90% and the number reached the requirement, the cells were collected, counted and inoculated.
Animals: BALB/c nude mice, female, 6-8 weeks old, weighing 18-20 g. A total of 85 animals were required, and provided by Shanghai Bikai experimental animal Co., Ltd.
Tumor inoculation: Estrogen tablets (0.36 mg/tablet) were subcutaneously inoculated on the left back of each mouse, three days later, 0.2 mL (10×10^6 cells) of BT474 cells (with matrigel in a volume ratio of 1:1) were subcutaneously inoculated on the right back of each mouse, group administration was started when the average tumor volume reached 150 mm^3−200 mm^3.
Tumor-bearing mice in each administration group had good tolerance to the tested compounds.

[1] = 10 mg/kg, oral once a day for 20 days
[2] = 10 mg/kg, oral once a day for 20 days, listed as crystal form A of the compound represented by formula (I)
[3] = 20 mg/kg, oral once a day for 20 days
[4] = 20 mg/kg, oral once a day for 20 days, listed as crystal form A of the compound represented by formula (I)
[5] = 40 mg/kg, oral once a day for 20 days
[6] = 40 mg/kg, oral once a day for 20 days, listed as crystal form A of the compound represented by formula (I)

SMILES: CNC(=O)[C@H](C)Cn1cnc2ccc(-c3cnc(OC)c(NS(=O)(=O)c4ccc(F)cc4F)c3)cc2c1=O
- Anti-tumor effect (in words) (10 mg/kg group): strong anti-tumor effect
- T/C % [1]: 50.18%
- TGI % [1]: 65.34%
- T/C % [2]: 50.18%
- TGI % [2]: 65.34%
- Anti-tumor effect (in words) (20 mg/kg group): strong anti-tumor effect
- T/C % [3]: 37.92%
- TGI % [3]: 80.21%
- T/C % [4]: 37.92%
- TGI % [4]: 80.21%
- Anti-tumor effect (in words) (40 mg/kg group): significant anti-tumor effects
- T/C % [5]: 21.16%
- TGI % [5]: 105.65%
- T/C % [6]: 21.16%
- TGI % [6]: 105.65%
- Dose to play the effect (oral once a day for 20 days): 10 mg/kg
